The results in this text go back to ChEMBL document CHEMBL3244136, “Structure-activity study of beta-adrenergic agents using the SIMCA method of pattern recognition” (J Med Chem, 1978).

In assay [1] the test system is Anura. The experiment in a line: Displacement of (-)-[3H]alprenolol from adrenergic receptor purified from frog erythrocytes.
Assay [2] deals with Anura. Put plainly: Displacement of (-)-[3H]alprenolol from adrenergic receptor purified from frog erythrocytes relative to isoproterenol.

In turn, `CCNCC(O)c1cccc(O)c1` (centres undefined) displayed a pKb with Anura [1] of 4.66.
The same measure, in the same setting: under `NC(CCO)C(O)c1ccccc1` (centres undefined) stands 4.29; under `CC(NCCc1ccc(O)cc1)C(O)c1ccc(O)cc1` (centres undefined), 5.06; under `CC(N)C(O)c1cccc(O)c1` (centres undefined), 4.46.
Same read-out and setting: the figure for `CC(COc1ccccc1)NC(C)C(O)c1ccc(O)c(CS(=O)(=O)N(C)C)c1` (centres undefined) is 7.12.
`CNC[C@H](O)c1ccc(O)c(O)c1` showed an Intrinsic activity in the assay on Anura [2] of 0.75. This compound also returned a negative-log Kb (pKb) with Anura [1] of 5.07.
In the case of `CC(C)(Cc1ccc(O)cc1)NCC(O)c1ccc(O)c(O)c1` (centres undefined), the Intrinsic activity in the assay with Anura [2] stood at 1.2. The compound further returned a pKb in the assay with Anura [1] of 7.22.
As to `CNC(C)C(O)c1ccccc1` (centres undefined), the pKb in the assay on Anura [1] is 5.04.
`CCC(NC1CCCC1)C(O)c1ccc(O)c(O)c1` (centres undefined) showed an Intrinsic activity in the assay on Anura [2] of 0.64. Also, the pKb in the assay with Anura [1] was 4.41.
As for `CC(N)C(O)c1ccc(O)c(O)c1` (centres undefined), the Intrinsic activity with Anura [2] came to 0.87. For the same compound, in the assay with Anura [1], the pKb is 4.55.
Consider `CC(COc1ccccc1)NC(C)C(O)c1ccc(O)cc1` (centres undefined), for which the pKb in the assay with Anura [1] was found to be 5.85.
Compound `CC(C)(Cc1ccccc1)NCC(O)c1ccc(O)c(NS(C)(=O)=O)c1` (centres undefined) returned an Intrinsic activity with Anura [2] of 0.27. The compound further registered a pKb in the assay with Anura [1] of 7.85.
In the assay with Anura [2], `CC(Cc1ccc(O)cc1)NCC(O)c1ccc(O)c(O)c1` (centres undefined) registered an Intrinsic activity of 1.1. The compound further had a pKb in the assay with Anura [1] of 6.17.
Compound `NCCc1ccc(O)c(O)c1` showed a pKb in the assay with Anura [1] below 3.7.
For the compound `CNCC(O)c1cccc(NS(C)(=O)=O)c1` (centres undefined), in the assay with Anura [1], the pKb stood at 4.19.
`CC(Cc1ccc2c(c1)OCO2)NCC(O)c1ccc(O)c(O)c1` (centres undefined) had an Intrinsic activity with Anura [2] of 1.1. This compound came in with a pKb in the assay on Anura [1] of 6.17.
In the same order, the values of `CC(CCc1ccc(O)cc1)NCCc1ccc(O)c(O)c1` (centres undefined) are 0.25 and 4.62.
`NCC(O)c1ccc(O)cc1` (centres undefined): the pKb in the assay with Anura [1] was below 3.7.
Same read-out and setting: under `COc1cccc(C(O)C(C)NC(C)C)c1` (centres undefined) stands 5.11; under `NCC(O)c1cccc(Cl)c1` (centres undefined), 4.08; under `CC(CCc1ccccc1)NC(C)C(O)c1ccc(O)cc1` (centres undefined), 6.74.
Same read-out and setting: under `NC[C@H](O)c1ccc(O)c(O)c1` stands below 3.7.
In the assay on Anura [2], `Oc1ccc(CCCNCCc2ccc(O)c(O)c2)cc1` had an Intrinsic activity of 0.17. This compound also came in with a pKb with Anura [1] of 4.64.
Compound `Oc1ccc(CCNCCc2ccc(O)c(O)c2)cc1` showed an Intrinsic activity in the assay with Anura [2] of 0.25. This compound also yielded a negative logarithm of the Kb (pKb) with Anura [1] of 4.33.
On to `CNCC(O)c1cccc(O)c1` (centres undefined), for which the pKb in the assay with Anura [1] is 4.28.
The same measure, in the same setting: under `NCCc1ccccc1` stands 3.7.
On the same count and under the same terms, under `NCCc1ccc(O)cc1` stands below 3.7.
`CCC(N)C(O)c1ccc(O)c(O)c1` (centres undefined): the Intrinsic activity in the assay on Anura [2] was determined as 0.71. The same compound showed a pKb with Anura [1] of 4.74.

By pKb is commonly meant −log10 of the Kb, conventionally taken in molar units. The low end stands for a high Kb, the high end for a low Kb.
